This note sets out measurements from patent US8796460B2, “Compounds for inhibiting KSP kinesin activity” (Mercky Sharp & Dohme Corp., priority 2007, dated 2014).

Molecules are shown by their SMILES.

The subject of the first experiment is HCT116 colon cancer cells. Briefly: KSP Cellular Assay (percent of cells staining positive for Phos-Histone H3 / Phos-MPM2). Format: cell-based. The following applies: Homo sapiens, HCT-116, 16 h, Table 101; HCT116 cells, 16 hours with drug; read-out: ED50 (nM) Range. As for the experimental part: HCT116 colon cancer cells were grown in DMEM:F12 media with 10% heat inactivated FBS at 37 degrees with 5% CO2. Cells were plated at 7,500 cells per well in PDL coated 384-well tissue culture plates. 6 hours later media was removed and new media containing drug was added. Cells were incubated with drug for 16 hours. All further steps were performed at room temperature in the dark. Cells were fixed with 25 ul/well Prefer fixation solution plus 250 nM Hoechst dye and incubated for 30 minutes. The fixation solution was removed and cells were washed with PBS. Cells were then permeabilized with 25 ul/well 0.2% Triton-X in PBS and incubated for 10 minutes. Cells were washed with PBS and then incubated with 25 ul/well PBS containing 3% FBS for 30 minutes. Cells were then stained overnight at 4 degrees with 25 ul/well antibody solution in PBS plus 3% FBS. Antibodies used were Phos-Histone H3 (ser10)-Alexa Flur 488 Conjugate and Phos-MPM2 Texas Red Conjugate. Cells were washed with PBS and then immunofluorescence images captured with HT Pathway microscope. The percent of cells staining positive was calculated and EC50 values for the compounds of the invention that were tested were determined using Excel XLfit.
EC50 Determinations: Dose-response curves were plotted from inhibition data generated each in duplicate, from 8 point serial dilutions of inhibitory compounds. Concentration of compound was plotted against enzyme activity (OD reading). To generate EC50 values, the dose-response curves were then fitted to a standard sigmoidal curve and EC50 values were derived by nonlinear regression analysis.
Regarding `CC(=O)N1N=C(c2cc(F)ccc2F)SC12CC(c1ccccc1)Oc1ccccc12` (centres unmarked) [compound 117], the EC50 was greater than 1000 nM.
Turning to `CC(=O)N1N=C(c2cc(F)ccc2F)SC12CCCc1ccccc12` (centres unmarked) [compound 101], the EC50 was greater than 1000 nM.
Regarding `CC(=O)N1N=C(c2cc(F)ccc2F)SC12CCOc1ccc(F)cc12` (centres unmarked) [compound 116], the EC50 was no more than 500 nM.
Still for that read-out and setting: the figure for `CC(=O)N1N=C(c2cc(F)ccc2F)SC12CCCOc1ccccc12` (centres unmarked) [compound 121] is greater than 1000 nM.

Still in this experiment, the particulars now being: Homo sapiens, HCT-116, 16 h, Table 401; HCT116 cells, 16 hours with drug; read-out: ED50 (nM) Range.
For the compound `O=C(C1CCCNC1)N1N=C(c2cc(F)ccc2F)SC12CCCc1ccsc12` (centres unmarked) [compound 426], the EC50 was greater than 1000 nM.
The same measure, in the same setting: in the case of `O=C1CCCN1CCCC(=O)N1N=C(c2cc(F)ccc2F)SC12CCc1ccccc12` (centres unmarked) [compound 455] it was 500 to 1000 nM.
Same read-out and setting: the figure for `O=C(N1N=C(c2cc(F)ccc2F)SC12CCOc1ccccc12)C(F)(F)F` (centres unmarked) [compound 470] is greater than 1000 nM.
Still for that read-out and setting: in the case of `O=C(CC1CCNCC1)N1N=C(c2cc(F)ccc2F)SC12CCc1ccccc12` (centres unmarked) [compound 447] it was no more than 500 nM; in that of `O=C(CC1CCNCC1)N1N=C(c2cc(F)ccc2F)SC12CCOc1ccccc12` (centres unmarked) [compound 486], 500 to 1000 nM.
For `O=C(CC1CCNC1)N1N=C(c2cc(F)ccc2F)SC12CCc1ccccc12` (centres unmarked) [compound 451], the EC50 was no more than 500 nM.
Same read-out and setting: in the case of `N[C@H](C(=O)N1N=C(c2cc(F)ccc2F)SC12CCOc1ccccc12)C1CC1` (some centres unmarked) [compound 419] it was greater than 1000 nM; in that of `NC(=O)CCC(=O)N1N=C(c2cc(F)ccc2F)SC12CCc1ccccc12` (centres unmarked) [compound 444], no more than 500 nM; in that of `CC(N)CCC(=O)N1N=C(c2cc(F)ccc2F)SC12CCc1ccccc12` (centres unmarked) [compound 452], no more than 500 nM.
On the same count and under the same terms, the figure for `N[C@H]1CC[C@@H](C(=O)N2N=C(c3cc(F)ccc3F)SC23CCOc2ccccc23)C1` (some centres unmarked) [compound 476] is greater than 500 nM.
Same read-out and setting: the figure for `O=C(CCC1CCNCC1)N1N=C(c2cc(F)ccc2F)SC12CCc1ccccc12` (centres unmarked) [compound 462] is no more than 500 nM.
For `NCCCCC(=O)N1N=C(c2cc(F)ccc2F)SC12CCc1ccccc12` (centres unmarked) [compound 443], the EC50 was no more than 500 nM.
Still for that read-out and setting: in the case of `NCCC(=O)N1N=C(c2cc(F)ccc2F)SC12CCOc1ccccc12` (centres unmarked) [compound 433] it was 500 to 1000 nM; in that of `O=C(CCC1CCNCC1)N1N=C(c2cc(F)ccc2F)SC12CCOc1ccccc12` (centres unmarked) [compound 498], no more than 500 nM; in that of `O=C(C1CCCNC1)N1N=C(c2cc(F)ccc2F)SC12CCSc1ccccc12` (centres unmarked) [compound 405], greater than 1000 nM.
Still for that read-out and setting: the figure for `O=C(CO)N1N=C(c2cc(F)ccc2F)SC12CCOc1ccccc12` (centres unmarked) [compound 473] is 500 to 1000 nM; for `O=C(CC1CNC1)N1N=C(c2cc(F)ccc2F)SC12CCc1ccccc12` (centres unmarked) [compound 460] it is no more than 500 nM; for `O=C([C@@H]1CCCCN1)N1N=C(c2cc(F)ccc2F)SC12CCCc1ccsc12` (some centres unmarked) [compound 425] it is greater than 1000 nM.
Same read-out and setting: in the case of `N[C@H]1CCC[C@@H](C(=O)N2N=C(c3cc(F)ccc3F)SC23CCOc2ccccc23)C1` (some centres unmarked) [compound 479] it was greater than 500 nM; in that of `CN(C)CCCC(=O)N1N=C(c2cc(F)ccc2F)SC12CCc1ccccc12` (centres unmarked) [compound 438], no more than 500 nM; in that of `N[C@H](C(=O)N1N=C(c2cc(F)ccc2F)SC12CCSc1ccccc12)C1CC1` (some centres unmarked) [compound 415], greater than 1000 nM.
As to `CCC(=O)N1N=C(c2cc(F)ccc2F)SC12CCOc1ccccc12` (centres unmarked) [compound 465], the EC50 was no more than 500 nM.
The same measure, in the same setting: the figure for `O=C(C1CCNCC1)N1N=C(c2cc(F)ccc2F)SC12CCOc1ccccc12` (centres unmarked) [compound 408] is greater than 1000 nM; for `O=C([C@@H]1CCCN1)N1N=C(c2cc(F)ccc2F)SC12CCSc1ccccc12` (some centres unmarked) [compound 413] it is greater than 1000 nM.
The same measure, in the same setting: the figure for `COCCOCC(=O)N1N=C(c2cc(F)ccc2F)SC12CCOc1ccccc12` (centres unmarked) [compound 472] is greater than 1000 nM.
As for `O=C(Cc1cccnc1)N1N=C(c2cc(F)ccc2F)SC12CCOc1ccccc12` (centres unmarked) [compound 484], the EC50 is 500 to 1000 nM.
Same read-out and setting: the figure for `O=C(c1ccncc1)N1N=C(c2cc(F)ccc2F)SC12CCOc1ccccc12` (centres unmarked) [compound 474] is greater than 1000 nM; for `O=C(CCC1CCCCN1)N1N=C(c2cc(F)ccc2F)SC12CCc1ccccc12` (centres unmarked) [compound 461] it is greater than 500 nM; for `N[C@H](C(=O)N1N=C(c2cc(F)ccc2F)SC12CCc1ccccc12)C1CC1` (some centres unmarked) [compound 420] it is greater than 1000 nM.
Same read-out and setting: in the case of `COC(C)C(=O)N1N=C(c2cc(F)ccc2F)SC12CCc1ccccc12` (centres unmarked) [compound 441] it was no more than 500 nM.

The experiment is the same for the next values; noted with them: Homo sapiens, HCT-116, 16 h, Table 801; HCT116 cells, 16 hours with drug; read-out: EC50 (nM) Range.
For `CC(=O)N1N=C(c2cc(F)ccc2F)S[C@@]12c1cc(F)ccc1OC[C@H]2CCN` [compound 801], the EC50 was no more than 500 nM.
In the case of `CC(=O)N1N=C(c2cc(F)ccc2F)S[C@@]12c1cccc(F)c1OC[C@H]2CCN` [compound 809], the EC50 was no more than 500 nM.
Still for that read-out and setting: the figure for `CC(=O)N1N=C(c2cc(F)ccc2F)S[C@@]12c1ccccc1OC[C@H]2CCNO` [compound 813] is no more than 500 nM; for `CC(=O)N1N=C(c2cc(F)ccc2F)S[C@]12c1cc(F)ccc1OC[C@H]2CCN` [compound 803] it is no more than 500 nM.

The same experiment, now with this note: Homo sapiens, HCT-116, 16 h, Table 1201 (Example 1201); HCT116 cells, 16 hours with drug; read-out: EC50 (nM) Range.
Consider `CC(=O)N1N=C(c2cc(F)ccc2F)S[C@@]12c1ccccc1OC[C@H]2CCNC(C)C` [compound 1203], for which the EC50 is no more than 500 nM.

Staying with this experiment, now noted: Homo sapiens, HCT-116, 16 h, table of Example 901; HCT116 cells, 16 hours with drug; read-out: EC50 (nM) Range.
Consider `CC(=O)N1N=C(c2cc(F)ccc2F)S[C@@]12c1ccccc1OC[C@H]2CC#N` [compound 903], for which the EC50 is no more than 500 nM.
The same measure, in the same setting: the figure for `CC(=O)N1N=C(c2cc(F)ccc2F)S[C@@]12c1ccccc1OC[C@@H]2CC#N` [compound 902] is no more than 500 nM; for `CC(=O)N1N=C(c2cc(F)ccc2F)S[C@]12c1ccccc1OC[C@H]2CC#N` [compound 904] it is 500 to 1000 nM.

Still in this experiment, the particulars now being: Homo sapiens, HCT-116, 16 h, table of Example 1801 (headed Table 1201); HCT116 cells, 16 hours with drug; read-out: EC50 (nM) Range.
Turning to `CC(=O)N1N=C(c2cccc(Cl)c2)S[C@@]12c1ccccc1OC[C@H]2CCN` [compound 1812], the EC50 was no more than 500 nM.
Same read-out and setting: the figure for `CC(=O)N1N=C(c2cc(F)cc(F)c2)S[C@]12c1cc(F)ccc1OC[C@@H]2CCN` [compound 1824] is greater than 1000 nM.

The experiment is the same for the next values; noted with them: Homo sapiens, HCT-116, 16 h, table of Example 1901; HCT116 cells, 16 hours with drug; read-out: EC50 (nM) Range.
On to `COCCOCC(=O)N1N=C(c2cc(F)ccc2F)S[C@@]12c1ccccc1OC[C@H]2CCN` [compound 1909], for which the EC50 is no more than 500 nM.
In the case of `COCCOCC(=O)N1N=C(c2cc(F)ccc2F)S[C@]12c1cc(F)cc(F)c1OC[C@@H]2CCN` [compound 1912], the EC50 is greater than 1000 nM.
On the same count and under the same terms, in the case of `CO[C@@H](C)C(=O)N1N=C(c2cc(F)ccc2F)S[C@@]12c1cc(F)cc(F)c1OC[C@H]2CCN` [compound 1907] it was no more than 500 nM.

The experiment is the same for the next values; noted with them: Homo sapiens, HCT-116, 16 h, table of Example 2001; HCT116 cells, 16 hours with drug; read-out: EC50 (nM) Range.
As to `CO[C@@H](C)C(=O)N1N=C(c2cc(F)ccc2F)S[C@@]12c1ccccc1OC[C@H]2CCN` [compound 2008], the EC50 was no more than 500 nM.
On the same count and under the same terms, in the case of `NCC[C@H]1COc2ccccc2[C@]12SC(c1cc(F)ccc1F)=NN2C(=O)C(F)F` [compound 2005] it was no more than 500 nM.

Still in this experiment, the particulars now being: Homo sapiens, HCT-116, 16 h, table of Example 2301; HCT116 cells, 16 hours with drug; read-out: EC50 (nM) Range.
Regarding `CC(=O)N1N=C(c2cc(F)ccc2F)SC12c1ccccc1OCC2CCO` (centres unmarked) [compound 2301], the EC50 is no more than 500 nM.

The same experiment, now with this note: Homo sapiens, HCT-116, 16 h, table of Example 2801; HCT116 cells, 16 hours with drug; read-out: EC50 (nM) Range.
Consider `CC(=O)N1N=C(c2cc(F)ccc2F)S[C@]12c1ccccc1NC[C@H]2CCN` [compound 2801], for which the EC50 was no more than 500 nM.

Staying with this experiment, now noted: Homo sapiens, HCT-116, 16 h, table of Example 2901; HCT116 cells, 16 hours with drug; read-out: EC50 (nM) Range.
Consider `CC(=O)N1N=C(c2cc(F)ccc2F)S[C@]12c1cc(F)ccc1NC[C@H]2CCN` [compound 2903], for which the EC50 was no more than 500 nM.
Still for that read-out and setting: the figure for `CC(=O)N1N=C(c2cc(F)ccc2F)S[C@@]12c1cc(F)ccc1NC[C@@H]2CCN` (single isomer, unassigned) [compound 2901] is no more than 500 nM.
